Data taken from patent US7396538B2, “Apparatus and method for delivery of mitomycin through an eluting biocompatible implantable medical device” (Endovascular Devices, Inc., priority 2002, dated 2008).
Values after ≈ are worked out from the molar mass of the structure shown.

Tested on: vascular smooth muscle cell
Experiment: vascular smooth muscle cell (VSMC) proliferation study at varying concentrations of mitomycin C
Type: cell-based
Protocol: One example of a study was conducted to investigate the vascular smooth muscle cell proliferation (VSMC) from varying concentrations of the mitomycin C. […] A lower dosage of mitomycin C would still permit the advance of VSMC and contribute to increased restenosis and […]. Depending upon the observed biological effects from potentially cytotoxic local tissue levels, a higher concentration of mitomycin C may also still be sufficient.

## CO[C@@]12[C@H](COC(N)=O)C3=C(C(=O)C(C)=C(N)C3=O)N1C[C@@H]1N[C@@H]12 [mitomycin C]
Rattus norvegicus, extrapolation from a logarithmic curve of VSMC inhibition at various dosages, read-out: concentration at which about 50% VSMC inhibition occurs
  IC50: ~0.067 mg/L (≈ 0.2 µM)
Dose of about 0.334 micrograms per milliliter
  VSMC inhibited: about 66%
Dose of about 25.1 micrograms per milliliter
  VSMC inhibited: about 98%
